Earlier results on two compounds are cited in patent publication US10835585B2, “Shared neoantigens” (priority 2015, dated 2020).

For series [1] the following is noted: more than 25 clinical trials.
Another series concerns healthy human volunteers. To be noted: 8 healthy volunteers, one single s.c. administration, versus 4 placebo subjects; whole blood.
The subject of series [2] is ovarian carcinoma patients.
Series [3] has as its system serum prostate specific antigen (PSA). To be noted: advanced hormone refractory prostate cancer; personalized vaccination combined with a low dose of estramustine.

For “Polyinosinic-Polycytidylic Acid-poly-L-lysine Carboxymethylcellulose [poly-ICLC]”, the toxicity profile result in series [1] is “relatively benign toxicity profile”. Further, the “differential expression of genes versus placebo” value with healthy human volunteers is “up to 212 genes”. Also, in series [2] (1.4 mg poly-ICLC and Montanide added to OLP, compared to OLP alone or OLP and Montanide, s.c.), the “generation of NY-ESO-1-specific CD4+ and CD8+ T-cell and antibody responses” value was “markedly enhanced”. Besides, the “patients showing induction of CD4+ and CD8+ T cell, as well as antibody responses to the peptide” value in series [2] (ovarian carcinoma patients, poly-ICLC with NY-ESO-1 peptide vaccine and Montanide, phase 1) is on record as over 90%.
Regarding `C[C@]12CC[C@@H]3c4ccc(OC(=O)N(CCCl)CCCl)cc4CC[C@H]3[C@@H]1CC[C@@H]2O` [estramustine], the “patients with ≥50% decrease in serum prostate specific antigen (PSA)” value in series [3] was 54%.
